Data on 1 molecule can be found in patent publication US20100144845A1, “OLIGONUCLEOTIDE SYSTEMS FOR TARGETED INTRACELLULAR DELIVERY” (Massachusetts Institute of Technology, priority 2006, published 2010).

The test system of one series is LNCaP cells. The series is described as follows: MTT cell viability assay. The format is cell-based. As to conditions: drug concentration 5 μM, Dox to RNA 1:1, treated approximately one hour, total of 72 hours. The procedure: (§1) Doxorubicin (Dox), a cytotoxic drug commonly used in chemotherapy that can dock into double-stranded portions of nucleic acids because of the stacking capacity of its many-ringed structure, was “loaded” onto oligonucleotides at a molar ratio of 1:1, Dox to RNA, e.g., as described in Bagalkot, V. et al., Angewandte Chemie (International ed 45, 8149-8152 (2006) (the drug concentration was 5 μM). MTT assays were performed essentially as previously described, e.g., in Akaishi, S. et al., The Tohoku Journal of Experimental Medicine 175, 29-42 (1995). Briefly, 100 μl aliquots of LNCaP or PC3 cells (5×10^3 cells/mL) were seeded in 24-well plates (n=5), allowed to grow overnight and treated, for approximately one hour, with 100 μL of either a) nothing; b) Dox alone; c) Dox conjugated with the initial library; d) Dox conjugated to the Rd-12 population of the LNCaP selection; or e) Dox conjugated to the Rd-12 population of the PC3 selection; then washed and further incubated, in fresh media, for a total of 72 hours. The cells were then washed twice with EBSS, treated with 50 μL MTT solution for 4 hours, and lysed with MTT-detergent overnight. The absorbance was measured the following day using micro-plate reader at 570 nm.
(Tetrazolium dyes change colour on reduction, which living cells bring about.)

Another series relates to PC3 cells. The series is described as follows: MTT cell viability assay. The format is cell-based. As to conditions: drug concentration 5 μM, Dox to RNA 1:1, treated approximately one hour, total of 72 hours. The procedure: as §1

As for `COc1cccc2c1C(=O)c1c(O)c3c(c(O)c1C2=O)C[C@@](O)(C(=O)CO)C[C@@H]3O[C@H]1C[C@H](N)[C@H](O)[C@H](C)O1` [Dox, Doxorubicin], the “effectiveness (cytotoxicity) in MTT assay” value in the series with LNCaP cells was “equipotent against PC3 and LNCaP cells”; with PC3 cells, “equipotent against PC3 and LNCaP cells”.
